Legend:
Assay in all cases: relative viability (nuclei count vs DMSO), 5 days (fraction); higher = more cells survive
[1] = compound: CN[C@@H]1C[C@H]2O[C@@](C)([C@@H]1OC)n1c3ccccc3c3c4c(c5c6ccccc6n2c5c31)C(=O)NC4 [Staurosporine] + Cc1nc(NC(=O)N2CCC[C@H]2C(N)=O)sc1-c1ccnc(C(C)(C)C(F)(F)F)c1 [Alpelisib] (partner 2 µM)
How it was run: (§1)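 Dosing by pin tool came one day after lung cancer cell lines were seeded in 1536-well plates, using either one drug or a fixed anchor-drug dose plus five library-drug doses (not always all listed) in √10 steps. After 5 days, nuclei were counted on 4× images. Relative viability is treated-well nuclei count divided by vehicle-well nuclei count, and values are medians of duplicate plates.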

Sulindac + Olaparib = compound: CC1=C(CC(=O)O)c2cc(F)ccc2/C1=C\c1ccc([S+](C)[O-])cc1 [Sulindac] + O=C(c1cc(Cc2n[nH]c(=O)c3ccccc23)ccc1F)N1CCN(C(=O)C2CC2)CC1 [Olaparib] (partner 8 µM)
How it was run: as §1

Sulindac + Linsitinib = compound: CC1=C(CC(=O)O)c2cc(F)ccc2/C1=C\c1ccc([S+](C)[O-])cc1 [Sulindac] + C[C@]1(O)C[C@@H](c2nc(-c3ccc4ccc(-c5ccccc5)nc4c3)c3c(N)nccn32)C1 [Linsitinib] (partner 1 µM)
How it was run: as §1

[2] = compound: CN[C@@H]1C[C@H]2O[C@@](C)([C@@H]1OC)n1c3ccccc3c3c4c(c5c6ccccc6n2c5c31)C(=O)NC4 [Staurosporine] + Cc1nc(Nc2ncc(C(=O)Nc3c(C)cccc3Cl)s2)cc(N2CCN(CCO)CC2)n1 [Dasatinib] (partner 0.075 µM)
How it was run: as §1

Cell Line | relative viability ([1]; first compound 0.005 µM) | relative viability ([1]; first compound 0.01581 µM) | relative viability ([1]; first compound 0.05 µM) | relative viability ([1]; first compound 0.1581 µM) | relative viability ([1]; first compound 0.5 µM) | relative viability (Sulindac + Olaparib; first compound 0.08 µM) | relative viability (Sulindac + Olaparib; first compound 0.253 µM) | relative viability (Sulindac + Olaparib; first compound 0.8 µM) | relative viability (Sulindac + Olaparib; first compound 2.53 µM) | relative viability (Sulindac + Olaparib; first compound 8 µM) | relative viability (Sulindac + Linsitinib; first compound 0.08 µM) | relative viability (Sulindac + Linsitinib; first compound 0.253 µM) | relative viability (Sulindac + Linsitinib; first compound 0.8 µM) | relative viability (Sulindac + Linsitinib; first compound 2.53 µM) | relative viability (Sulindac + Linsitinib; first compound 8 µM) | relative viability ([2]; first compound 0.005 µM) | relative viability ([2]; first compound 0.01581 µM) | relative viability ([2]; first compound 0.05 µM) | relative viability ([2]; first compound 0.1581 µM) | relative viability ([2]; first compound 0.5 µM)
NCI-H2126 | 0.827 | 0.636 | 0.495 | 0.426 | 0.341 | 1.12 | 0.923 | 0.87 | 0.951 | 1 | 0.608 | 0.713 | 0.661 | 0.726 | 0.728 | 0.501 | 0.275 | 0.301 | 0.257 | 0.222
LU99A | 0.341 | 0.153 | 0.19 | 0.105 | 0.118 | 0.294 | 0.231 | 0.259 | 0.241 | 0.311 | 0.578 | 0.524 | 0.493 | 0.499 | 0.659 | 0.353 | 0.227 | 0.176 | 0.191 | 0.112
BEN | 1.26 |  | 0.615 | 0.497 | 0.286 | 0.964 | 1.07 | 1 | 1.05 | 1.06 | 1.02 | 0.892 | 0.571 | 0.967 | 1.07 | 0.288 | 0.288 | 0.356 | 0.236 | 0.167
NCI-H1666 | 0.582 | 0.371 | 0.375 | 0.177 | 0.175 | 0.705 | 0.741 | 0.674 | 0.734 | 0.774 |  | 0.797 | 0.854 | 0.779 | 0.854 | 0.602 | 0.419 | 0.484 | 0.261 | 0.196
NCI-H1993 | 0.623 | 0.668 | 0.578 | 0.503 | 0.449 | 1.03 | 1.11 | 0.895 | 1.05 | 1.13 | 0.741 | 0.674 | 0.789 | 0.735 | 0.82 | 0.646 | 0.454 | 0.54 | 0.488 | 0.509
NCI-H520 | 1.2 | 0.784 | 0.544 | 0.477 | 0.165 | 0.36 | 0.328 | 0.302 | 0.313 | 0.283 | 1.24 | 1.1 | 0.739 | 0.997 | 1.33 | 0.278 | 0.251 | 0.215 | 0.176 | 0.171
LCLC-103H | 1.07 | 0.513 | 0.365 | 0.221 | 0.178 | 0.856 | 0.757 | 0.695 | 0.798 | 0.82 | 1.18 | 1.22 | 0.94 | 1.04 | 1.2 | 0.307 | 0.108 | 0.113 | 0.134 | 0.103
HCC-78 | 0.394 | 0.305 | 0.241 | 0.281 | 0.237 | 0.972 | 0.812 | 0.763 | 0.784 | 0.686 | 0.521 | 0.493 | 0.439 | 0.454 | 0.501 | 0.357 | 0.295 | 0.339 | 0.26 | 0.264
NCI-H1975 | 0.238 | 0.201 | 0.15 | 0.108 | 0.104 | 0.998 | 0.763 | 0.65 | 0.841 | 0.974 | 1.14 | 1.03 |  | 1.07 | 1.05 | 0.29 | 0.177 | 0.152 | 0.1 | 0.0812

Reference: the supplement of paper PMC10307832
